Data: paper PMC5164911, “Comparative Analysis of the Interaction between Different Flavonoids and PDIA3” (Oxidative Medicine and Cellular Longevity, 2016)

How the values were obtained:
PDIA3 [1] = biological target: T1, PDIA3 (Homo sapiens, UniProt P30101); assay: Fluorescence quenching titration of PDIA3 intrinsic fluorescence; format: binding; conditions: for Stern-Volmer constant (K SV): 0.5∗10^−6 M PDIA3 in reduced conditions, pH 7.4, 25°C, flavonoid 0 to 10∗10^−6 M, mean and standard deviation; for bimolecular quenching rate constant (K q): K SV = K q τ0 with τ0 of the order of 10^−8 s; for bimolecular quenching rate constant (K q) / Kd / binding constant (K b): reduced PDIA3, pH 7.4, 25°C; for Kd: K d = 1/K b, read-out: dissociation constant (K d); for binding constant (K b): equation of Bi et al., reiterative calculation of Sun et al.
T1 construct: made in house; host or cells: E. coli BL21 (vector pET21)
T1 sequence (P30101 25-505): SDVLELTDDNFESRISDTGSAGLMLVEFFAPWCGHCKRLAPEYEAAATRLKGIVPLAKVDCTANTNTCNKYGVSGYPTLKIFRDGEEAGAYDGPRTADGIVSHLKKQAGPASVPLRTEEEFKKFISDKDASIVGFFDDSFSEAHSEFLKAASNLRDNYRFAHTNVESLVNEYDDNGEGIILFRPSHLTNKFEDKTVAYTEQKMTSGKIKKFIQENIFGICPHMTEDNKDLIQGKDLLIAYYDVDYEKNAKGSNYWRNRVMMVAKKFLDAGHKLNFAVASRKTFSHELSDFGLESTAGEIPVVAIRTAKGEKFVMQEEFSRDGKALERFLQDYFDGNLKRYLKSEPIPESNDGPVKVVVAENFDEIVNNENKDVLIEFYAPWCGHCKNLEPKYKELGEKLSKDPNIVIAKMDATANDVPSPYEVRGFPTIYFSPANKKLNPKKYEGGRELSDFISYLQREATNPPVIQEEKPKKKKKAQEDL
Description: Quantitative analysis of the interaction between individual flavonoids and PDIA3 was performed by fluorimetric titration. […] Briefly, solution of PDIA3 (0.5 μM) or a and a′ domains (1 μM) in phosphate buffered saline (PBS) containing DTT 0.1 mM and EDTA 0.2 mM were titrated in quartz cuvette by stepwise additions, at 5 min time intervals, of individual flavonoid solution (1 mM in PBS/ethanol 50 : 50 v/v freshly prepared from a 20 mM stock solution in DMSO). […] To minimize the inner-filter effect we limited the highest concentration reached in the titration test up to 10 μM. All experiments were carried out at 25°C. Each spectrum was the mean of three repeated scans. Fluorescence spectra of appropriate blanks (flavonoids without proteins) were recorded under the same experimental conditions and subtracted from the corresponding flavonoid-protein system to correct the fluorescence background.
Quenching analysis was performed on PDIA3 (0.5 μM), in the reduced form, by adding stepwise increasing concentration of each molecule and recording the protein fluorescence spectra. For some flavonoids the analysis was extended to isolate a′ domain (1 μM), always in the reduced form. […] For each ligand molecule the Stern-Volmer quenching constant was obtained by linear regression of plots of F 0/F versus [L].
The Stern-Volmer quenching constant may be expressed as K SV = K q τ 0, where K q is the quencher rate coefficient and τ 0 is the average lifetime of the emissive excited state of the protein in the absence of the quencher.
The number of binding sites (n) and the binding constant (K b) were obtained by plotting log((F 0 − F)/F) versus log(1/([L t] − n(F 0 − F)[P t]/F 0)) using the reiterative calculation process described by Sun et al., assuming a similar affinity for each binding site.

PDIA3 [2] = biological target: T1, PDIA3; assay: Differential scanning fluorimetry (thermal stability, SYPRO Orange); format: binding; conditions: for Increase in melting temperature (T m) of PDIA3: 50 μM flavonoid, reduced PDIA3 1 μM; for Effect on PDIA3 stability (T m): flavonoid up to 50 μM, mainly at the highest concentration
Description: Protein stability was tested by the fluorescence-based thermal stability assay or differential scanning fluorimetry (DSF) developed by Pantoliano and coworkers. DSF records the fluorescence emission signal from the binding of a dye (SYPRO orange) to the exposed hydrophobic patches upon protein unfolding. Fluorescence measurements were performed using a CFX96 Connect RT-PCR instrument (BioRad). 18 μl aliquots of protein solution (1 μM), freshly diluted in Tris Buffered saline (50 mM TrisHCl, pH 8.0, 150 mM NaCl) containing 0.1 mM DTT, 0.2 mM EDTA, and 1 : 1000 dilution of SYPRO Orange (50 mM stock solution in DMSO), were distributed in a 96-well plate. Sample wells were addition of increasing concentration (up to 50 μM) of individual flavonoid by adding 2 μl of 10-fold concentrated stock solutions freshly prepared. As control, the protein solution was added with 2 μl of the dilution buffer. A melting point analysis was recorded increasing the temperature from 20 to 95°C with an increment of 0.5°C and reading, at each temperature, the fluorescence in fluorescence resonance energy transfer mode (FRET). Each measure was the average of three sample wells reading and each DSF experiment was repeated at least three times. To calculate T m values, DSF data from the melting curve were exported and fitted to Boltzman equation using GraphPad software. Effect of flavonoids was evaluated comparing the T m values in presence and absence of each molecule.

PDIA3 [3] = biological target: T1, PDIA3; assay: Disulfide reductase activity with DiE-GSSG fluorogenic probe; format: biochemical; conditions: DiE-GSSG substrate; for Inhibition of disulfide reductase (redox) activity: 20 μM flavonoid (Figure 7)
Description: Disulfide reductase activity of ERp57 was monitored by sensitive fluorescent assay using dieosin glutathione disulfide (DiE-GSSG) as fluorogenic probe. DiE-GSSG was synthesized by the reaction of eosin isothiocyanate with oxidized glutathione (GSSG) according to the method of Raturi and Mutus with some modifications. DiE-GSSG concentration was determined spectrophotometrically (ℇ 525 = 88,000 M^-1 cm^−1). Disulfide reductase activity was assayed in a reaction buffer containing 2 mM EDTA, 150 nM DiE-GSSG, and 5 μM DTT in PBS. A 20 μl aliquot of a stock solution of PDIA3 (1 μM) was added to the reaction mixture and DiE-GSSG reduction was monitored at 545 nm with excitation at 520 nm, at 25°C with continuous stirring. Reductase activity was calculated as the initial velocity in fluorescence increase. To test the effect of flavonoids on PDIA3 activity, the protein stock solution was previously incubated for 15 minutes at room temperature with different concentrations of each flavonoid and then a 20 μl aliquot subjected to assay in a reaction buffer containing the same concentration of the flavonoid.
Fluorescence quenching constant (K SV) values were given as means ± standard deviation and values of disulfide reductase activity were expressed in % of control sample ± relative standard deviation. All measurements were performed at least three times. Dunnett's test was used to compare the obtained reductase activity data with the activity of the untreated protein and a p value of <0.01 was considered as statistically significant.

Compound	Stern-Volmer constant (K SV) (PDIA3 [1]) [M⁻¹]	bimolecular quenching rate constant (K q) (PDIA3 [1]) [M⁻¹ s⁻¹]	Kd (PDIA3 [1]) [µM]	binding constant (K b) (PDIA3 [1]) [M⁻¹]	Increase in melting temperature (T m) of PDIA3 (PDIA3 [2])	Effect on PDIA3 stability (T m) (PDIA3 [2])	Inhibition of disulfide reductase (redox) activity (PDIA3 [3])	Effect on disulfide reductase activity (in words) (PDIA3 [3])
O=c1c(O)c(-c2ccc(O)cc2)oc2cc(O)cc(O)c12 [Kaempferol, kaempferol]	28423 ± 982	2.84e+12	38.5	26000	increased more than three degrees			
O=C1C[C@@H](c2ccc(O)cc2)Oc2cc(O)cc(O)c21 [Naringenin, naringenin]	16900 ± 352	1.69e+12	57.8	17300				
C[C@@H]1O[C@@H](Oc2c(-c3ccc(O)c(O)c3)oc3cc(O)cc(O)c3c2=O)[C@H](O)[C@H](O)[C@H]1O [Quercitrin, quercitrin]	29211 ± 483	2.92e+12	31	32300				
O=c1c(-c2ccc(O)cc2)coc2cc(O)cc(O)c12 [Genistein, genistein]	22953 ± 435	2.3e+12	41	24400		similar, but less pronounced, effect		
COc1ccc(-c2cc(=O)c3cc(OC)ccc3o2)c(OC)c1 [Trimethoxyflavone, 6,2′,4′-trimethoxyflavone]	22209 ± 484	2.22e+12	55.2					
O=c1cc(-c2ccc(O)cc2)oc2cc(O[C@@H]3O[C@H](CO)[C@@H](O)[C@H](O)[C@H]3O)cc(O)c12 [Apigenin-7-glucoside, apigenin-7-glucoside]	43961 ± 673	4.4e+12	21.1	47300				
COc1cc(O)c2c(=O)c(O)c(-c3ccc(O)c(O)c3)oc2c1 [Rhamnetin, rhamnetin]	28462 ± 295	2.85e+12	33.2	30100		similar, but less pronounced, effect		
O=c1cc(-c2ccc(O)c(O)c2)oc2cc(O[C@@H]3O[C@H](CO)[C@@H](O)[C@H](O)[C@H]3O)cc(O)c12 [Luteolin-7-glucoside, luteolin-7-glucoside]	31601 ± 484	3.16e+12	28.9	34600				
COc1c(-c2ccc(O)c(O)c2)oc2cc(O)cc(O)c2c1=O [3-O-Methyl-quercetin, 3-O-methyl quercetin]	41110 ± 794	4.11e+12	21.9	45700				
O=c1c(O)c(-c2ccc(O)cc2O)oc2cc(O)cc(O)c12 [Morin, morin]	24063 ± 265	2.41e+12	39	25600	increased more than three degrees		approximately 20%	some inhibitory effect
O=c1c(O[C@@H]2O[C@H](CO)[C@@H](O)[C@H](O)[C@H]2O)c(-c2ccc(O)c(O)c2)oc2cc(O)cc(O)c12 [Isoquercetin, isoquercetin]	25738 ± 367	2.57e+12	34.4	29100				
Oc1cc(O)c2cc(O)c(-c3ccc(O)c(O)c3)[o+]c2c1 [Cyanidin, cyanidin]	29761 ± 635	2.98e+12	34.2	29300		similar, but less pronounced, effect	approximately 20%	
C[C@@H]1O[C@@H](OC[C@H]2O[C@@H](Oc3c(-c4ccc(O)c(O)c4)oc4cc(O)cc(O)c4c3=O)[C@H](O)[C@@H](O)[C@@H]2O)[C@H](O)[C@H](O)[C@H]1O [Rutin, rutin]	45197 ± 465	4.52e+12	22	45500				
COc1cc(-c2oc3cc(O)cc(O)c3c(=O)c2O)ccc1O [Isorhamnetin, isorhamnetin]	36109 ± 1271	3.61e+12	30.8	32500		similar, but less pronounced, effect		
O=c1c(O)c(-c2ccc(O)c(O)c2)oc2cc(O)ccc12 [Fisetin, fisetin]	33164 ± 542	3.32e+12	27.1	36700	increased more than three degrees			
